Columns and labels:
[1] = tested on: Murine mammary carcinoma MDAH-MCa-4 tumours; assay: Antitumour activity (tumour growth delay, cures) against MDAH-MCa-4 tumour; format: in vivo, female C3H/HeN mice; conditions: for Growth delay (days) Median: interim analysis
Description: (§1) Murine mammary carcinoma MDAH—MCa-4 tumours were grown in female C3H/HeN mice from stocks stored in liquid nitrogen at the sixth transplant generation, and were passaged and used for experiments at the eighth transplant generation. Tumours for experiments were grown by inoculating 20 μl of cell suspension (5 mg packed cells) intramuscularly in the right gastrocenmius muscle. Animals were randomised to treatment groups, and treated with drugs when the dliameter of the tumour-bearing leg reached 10-11 mm (ca 0.6 g tumour), approximately 18 days after inoculation. […] Both compounds were administered essentially at the same time (within 1 min). Host toxicity was assessed by determination of lethality, and by measurement of body weight 4-5 days after drug treatment. The diameter of the tumour-bearing leg was measured three times weekly until values exceeded 13 mm (ca 1.4 g tumour) at which time the animals were terminated. The growth curve for each individual tumour was plotted as in FIG. 1, and the time-to-endpoint (TTE, time from treatment to endpoint) was determined for each mouse. The median and mean TTE was determined for each treatment group. The mean tumour growth delay for each group was calculated as the difference between mean TTE for treated and control groups. The statistical significance of the antitumour effects was tested using ANOVA followed by Dunnett's test to determine p values for the significance of differences between individual groups.

[2] = Host toxicity (lethality, body weight 4-5 days after drug treatment); format: in vivo, female C3H/HeN mice
Description: as §1

[3] = DMXAA 80 μmol/kg alone, group 120/B
[4] = paclitaxel 23.7 μmol/kg alone, group 120/C

| Compound | Growth delay (days) Median [1, 3] [days] | % Body weight change (d4-5) Mean [2, 3] [%] | Growth delay (days) Median [1, 4] [days] | antitumour activity (in words) ([1]; paclitaxel alone, up to 42 μmol/kg) | % Body weight change (d4-5) Mean [2, 4] [%] | Number of mice Deaths ([2]; paclitaxel 23.7 μmol/kg alone, group 120/C, 7 mice treated, interim analysis) | host toxicity (in words) ([2]; paclitaxel alone, 42 μmol/kg) |
| --- | --- | --- | --- | --- | --- | --- | --- |
| Cc1ccc2c(=O)c3cccc(CC(=O)O)c3oc2c1C [DMXAA, 5,6-dimethylxanthenone-4-acetic acid] | 17.9 | −6.0 | – | – | – | – | – |
| CC(=O)O[C@H]1C(=O)[C@@]2(C)[C@H]([C@H](OC(=O)c3ccccc3)[C@]3(O)C[C@H](OC(=O)[C@H](O)[C@@H](NC(=O)c4ccccc4)c4ccccc4)C(C)=C1C3(C)C)[C@]1(OC(C)=O)CO[C@@H]1C[C@@H]2O [Paclitaxel, paclitaxel] | – | – | 3.5 | little antitumour activity | −0.1 | 1 | not demonstrably toxic |
